From patent US11064698B2, “Tetrazolinone compound and use thereof” (SUMITOMO CHEMICAL COMPANY, LIMITED, priority 2017, dated 2021)

Legend:
Assay type in all cases: in vivo
[1] = system: diamondback moth (Plutella xylostella); test: Control test against diamondback moth (Plutella xylostella); details: 500 ppm active ingredient, sprayed on cabbage seedlings 20 mL/seedling, 2nd instar larvae, after 5 days, 25° C.
Procedure: Next, a Test Example is used to show efficacy of the Present compound against pests. In the following Test Example, the test was carried out at 25° C. Test Example 1 Control test against diamondback moth (Plutella xylostella) The Present compound was formulated according to the process described in the Formulation Example 6 to obtain a formulation, and water containing a spreader (0.03% by volume) was added thereto to prepare a diluted solution containing 500 ppm of the active ingredient. Cabbage (Brassicae oleracea) seedlings (on the developmental stage of the second to third true leaf) were planted in a container, and said diluted solution was sprayed into the leaves of the seedlings at a ratio of 20 mL/seedling. Thereafter, the stems and leaves of the seedlings were cut out, and the leaves were placed into a container lined with a filter paper. Approximately five the 2nd instar larvae of diamondback moth (Plutella xylostella) were released into the container. After 5 days, the number of the surviving insects was examined, and the controlling value was calculated by the following equation. […] Controlling value (%)={1−(Cb×Tai)/(Cai×Tb)}×100 wherein the symbols in the equation represent the following meanings. […]

[2] = system: Septoria leaf blotch (Septoria tritici) on wheat; test: Preventive efficacy by foliage application against Septoria leaf blotch on wheat
[3] = system: net blotch (Pyrenophora teres) on barley; test: Preventive efficacy by foliage application against net blotch on barley

Row | SMILES | Controlling value (control effects) [1] | preventive efficacy against Septoria leaf blotch (Septoria tritici) [2] | preventive efficacy against net blotch (Pyrenophora teres) [3]
1 | Cc1cccc(-n2nnn(C)c2=O)c1CN1C(=O)CCN1c1ccc(Cl)cc1 [Present compound] | 100% | – | –
2 | Cc1cccc(-n2nnn(C)c2=O)c1COC1=NN(c2ccc(Cl)cc2)CC1 [compound represented by formula (4)] | – | showed preventive efficacy | showed preventive efficacy
